Row | SMILES | melting point [°C]
1 | CC(Oc1ccc(Oc2ccc(Oc3ccc(OC(C)C(=O)O)cc3)cc2)cc1)C(=O)O (stereo unspecified) | 135 to 136
2 | C=CCOC(=O)COC(=O)c1c(Br)c(Br)c(C(=O)OCC(=O)OCC=C)c(Br)c1Br | 146 to 148
3 | C=C1c2ccccc2CCc2ccccc21 | 65.1
4 | CCCC(CCC)C(=O)NCC(=O)NCCCCCCNC(=O)n1cc(F)c(=O)[nH]c1=O | 111 to 112
5 | CSc1nc(N)nc2c1ncn2C1C=CC(CO)C1 (stereo unspecified) | 152 to 154
6 | CCn1c(-c2ccc(N)cc2)n[nH]c1=S | 240 to 250
7 | COc1ccnc(CSc2nc3c(C(F)(F)F)cccc3[nH]2)c1 | 146
8 | OCc1ccc(/C=C/c2ccc[nH]2)cc1 | 186 to 189
9 | COC(=O)c1cc(OC)c(O)cc1[N+](=O)[O-] | 101 to 102
10 | CC1(C)OC(c2ccc(S(C)(=O)=O)cc2)=C(c2ccc3c(c2)OCO3)C1=O | 178 to 179
11 | CCC(C(C)=CC(CNC(=O)c1nccnc1N)=NO)[N+](=O)[O-] (stereo unspecified) | 139 to 141
12 | CN1c2ccc(Cl)cc2C(c2ccccc2)=Nc2cccnc21 | 153 to 156
13 | CC(=O)OC(c1ccc(C(F)(F)F)cc1[N+](=O)[O-])c1cnoc1C1CC1 (stereo unspecified) | 82
14 | Nc1ccc(-c2ccccc2)cc1[N+](=O)[O-] | 163 to 165
15 | O=[N+]([O-])c1c(Cl)cccc1-c1nc2ccccc2[nH]1 | > 260
16 | COc1ccc(CCN(C)CCOc2ccc(NC(=O)c3cccc4c3Nc3ccccc3S4)cc2)cc1OC | 90
17 | Oc1nc(Nc2ccc(O)c(Cl)c2)cc(-c2ccccc2)n1 | 280 to 282
18 | NS(=O)(=O)c1ccc2c(c1)C=C(C(=O)O)C(C(F)(F)F)O2 (stereo unspecified) | 188 to 190
19 | N#CSCC(I)=C(I)CSC#N | 190
20 | O=C1CCCc2nc3ccccc3c(NCCCC(c3ccccc3)c3ccccc3)c21 | 86 to 88
21 | FC(F)(F)c1ccccc1N=C1CCCc2cc3c(nc21)C(=Nc1ccccc1C(F)(F)F)CCC3 | 162 to 164
22 | CC(=O)Nc1ccc(SCCN2CC=C(c3ccc(F)cc3)CC2)cc1 | 150 to 152
23 | CC1(C)C(C=C2C(C(F)(F)F)C2(F)F)C1C(=O)O (stereo unspecified) | 45.7
24 | C=CCC1C=C(c2c[nH]c(-c3ccc(F)cc3)c2-c2ccncc2)CCN1C (stereo unspecified) | 218 to 220
25 | COc1cc(-c2cc(=O)c3ccccc3o2)cc([N+](=O)[O-])c1OC | 216 to 217

Row | SMILES | melting point [°C]
26 | CCc1cc2c(c(CC)n1)CCC(=O)N2 | 90 to 94
27 | COc1cc2c(cc1OC)CC(=O)N(CC1CCCNC1)CC2 (stereo unspecified) | 152 to 156
28 | CCOP(=O)(CSCCOn1cnc2c(N)ncnc21)OCC | 93 to 95
29 | CC(=O)OCC(=O)C1CCC2C3CCC4CC(O)C(N5CCOC(C)(C)C5)CC4(C)C3CCC12C (stereo unspecified) | 174 to 175
30 | O=[N+]([O-])c1cc2nc(O)c(O)nc2c2[nH]nnc12 | > 300
31 | COC(=O)c1ccc(Cl)c(CSC)c1SC | 47.1
32 | CCOCc1nc2c(N)nc3cc(-c4cccc(NS(C)(=O)=O)c4)cnc3c2n1CC(C)(C)F | 208 to 209
33 | CCOc1ccnc(F)c1N | 76 to 77
34 | O=C(NCCO)c1cccc(-c2cccc3nn(Cc4cccc(Cl)c4)cc23)c1 | 202 to 203
35 | CC1(C)NC(=O)N(c2ccc(C#N)c(C(F)(F)F)c2)C1=N | 228
36 | C#Cc1nc(-c2ccco2)c2ncn(Cc3ccc(OC)cc3)c2n1 | 155
37 | Nc1ccc(Br)n2nc(SCc3ccccc3)nc12 | 125 to 126
38 | COc1cc(OC)c2c(c1)S(=O)(=O)NC2=O | 258
39 | CC(C)C(c1cncnc1C(F)(F)F)N(C)C(=O)N(C)Cc1ccc(Cl)cc1 (stereo unspecified) | 95 to 98
40 | O=c1[nH]c2ccc(Cl)cc2n1CCCl | 164
41 | CC(=O)c1c[nH]c(-c2ccncc2)c1C | 210 to 211
42 | CCCCC(CC)COc1cc(CCl)c(OC)cc1CCl (stereo unspecified) | 58 to 60
43 | O=C(Nc1ccc(C(=O)N2Cc3ccccc3Cc3ccccc32)cc1)c1ccc(F)cc1F | 215 to 217
44 | CNC1=NS(=O)N=C1NCCSCc1csc(NC(=N)N)n1 (stereo unspecified) | 175 to 177
45 | COCOc1c(CCO)c(OC)c(OCOC)c(CCCCCc2c(OC)c(OCOC)c(CCO)c(OC)c2OCOC)c1OC | 68 to 70
46 | C=CCOC(=O)CC[C@H](NC(=O)Nc1ccc(COC(=O)Oc2ccc([N+](=O)[O-])cc2)cc1)C(=O)OCC=C | 106 to 107
47 | Cc1nc(N)sc1S(=O)(=O)NCCN(C)C | 153
48 | CC(C(=O)O)c1ccc(-c2ccc(Br)cc2Br)cc1 (stereo unspecified) | 114 to 116
49 | O=C(NCCCCCn1ccnc1)c1cc2cc(Cl)ccc2[nH]1 | 214 to 216

The next lines start with the values.

Row | melting point [°C] | SMILES
50 | 315 to 317 | O=C(O)c1ccc(Br)c(S)c1
51 | 152 to 153 | CC(=O)CCn1[nH]c(=O)c2ccccc2c1=O
52 | 139 to 140 | COc1ccc(C(=O)N2c3ccccc3C(N3CCCc4cc(C)ccc43)CC2C)cc1OC (stereo unspecified)
53 | 180 | COc1c(OCc2ccccc2)ccc2[nH]ccc(=O)c12
54 | 109 to 110 | CCn1ncc2c3c(NCc4ccc(OC)c(Cl)c4)nnc(N4CCC(O)CC4)c3cnc21
55 | 58 to 59 | CC(C)(C)c1ccc2c(C#N)ccc(C#N)c2c1
56 | 108 to 110 | O=C(Cc1ccc(Cl)cc1)N1CCC2(CC1)Cc1ccccc1O2
57 | 253 | N=C(NC1CC1)c1cc2c(cn1)[nH]c1ccccc12
58 | 207 to 209 | CNc1ccc(C(=O)Nc2c(C)cccc2C)cn1
59 | 199 | CSC(=S)Nc1ccc(C)cc1C(=O)O
60 | 130 to 131 | CC(C)c1nn(-c2ccc(C(F)(F)F)cn2)cc1CCCOc1cc(CCC(=O)O)n(C(C)C)n1
61 | 85 to 86 | C[C@@H]1CO[C@]2(CC[C@@H](OCc3ccccc3)C2)N1C(=O)c1ccccc1
62 | 94 to 96 | COc1cc(OC)nc(C(O)(C(=O)NS(C)(=O)=O)c2ccccc2)n1 (stereo unspecified)
63 | 149 to 150 | COc1cc(OC)c2c(=O)[nH]c(-c3cccc(N4CCN(C(C)C(N)=O)CC4)n3)nc2c1 (stereo unspecified)
64 | 96 to 98 | O=C(CCCCCNC(=O)c1ccc2ccccc2c1)NO
65 | 171 to 174 | c1ccc2c(c1)CC1(c3c[nH]cn3)CCCC21 (stereo unspecified)
66 | 208 to 209 | CCc1cn(C2CC(O)C(CNC(=O)C(C)S(=O)c3ccc(Cl)cc3Cl)O2)c(=O)[nH]c1=O (mixture of isomers)
67 | 101 to 104 | CN(CCO)C(=O)Cn1nc(-c2ccccc2O)nc1-c1ccccc1O
68 | 105 to 107 | O=C1NC(=O)C(c2cn3c4c(cccc24)CCC3)C1c1ccc(O)cc1 (stereo unspecified)
69 | 111 to 113 | CCCCc1oc2ccccc2c1C(O)c1ccc(-c2ccc(OCC(=O)O)cc2)cc1 (stereo unspecified)
70 | 236 to 237 | CCNc1cc(C(=O)O)cc(S(N)(=O)=O)c1Oc1ccccc1
71 | 157 to 162 | CC(C)(C)C(=O)C(Br)Oc1ccc(S(=O)(=O)c2ccccc2)cc1 (stereo unspecified)
72 | 99 to 100 | O=C(Cc1ccccc1)C(C[N+](=O)[O-])c1ccccc1 (stereo unspecified)
73 | 100 to 102 | O=C(C=Cc1cccnc1)NCCCCC1CCN(C(=O)c2ccccc2)CC1
74 | 112 | CC(C)(CO)NS(=O)(=O)c1ccc(Cl)s1
75 | 169 to 172 | COCCC1(C(=O)N[C@@H](Cc2ccc(NC(=O)c3cc(C#N)ccc3Cl)cc2)C(=O)O)CCCC1

Row | melting point [°C] | SMILES
76 | 140 | CN1C(=O)C2CC2(c2ccc(N(C)C)cc2)C1=O (stereo unspecified)
77 | 268 to 270 | CC(=O)N(C)c1cnc2ccc(Cl)cc2c1-c1ccccc1
78 | 104 to 106 | Cc1ccccc1CC1(CO)CCN(C(=O)OC(C)(C)C)CC1
79 | 162 to 164 | CC(C)(C)c1cc(-c2nn(CC(N)=O)c3ncccc23)cc(C(C)(C)C)c1O
80 | 159 to 160 | Cc1ccc(C=Cc2ccc(-c3ccccc3)s2)cc1
81 | 94 to 96 | O=C(CBr)c1ccc(OCc2ccccc2)c(OCc2ccccc2)c1Cl
82 | 145 to 146 | CN(C)c1ncc(C(=O)CNCC(O)c2cccc(OC(=O)C(C)(C)C)c2)c(-c2ccccc2)n1 (stereo unspecified)
83 | 74 to 75 | OC1(CCc2ccccc2)CCOCC1
84 | 270 to 273 | CNC(=O)C=Cc1ccc(C(=O)O)cc1
85 | 68 to 70 | CN(C)CCCCC(=O)N1CCC(c2[nH]nc3c2C(=O)c2c(NC(=O)NN4CCOCC4)cccc2-3)CC1
86 | 97 to 97.5 | COc1ccc(C=CC(=O)c2ccc(OC)c(CC=C(C)C)c2O)cc1
87 | 129 to 130 | Cn1cc(C(=O)c2ccc(Cl)cc2)cc1C(=O)CN1CCCCC1
88 | 192 to 194 | CC(C)(C)c1ccc(/C=N/OCCCOc2ccc(C(=O)O)c(NC(=O)c3ccc(C(C)(C)C)cc3)c2)cc1
89 | 150 to 152 | CCc1oc(C(c2ccccc2)c2ccccc2)nc1CC1CCc2c(cccc2OCC(=O)O)C1 (stereo unspecified)
90 | 122 | CS(=O)(=O)c1ccc(-c2cc(C(=O)c3cccnc3)sc2N2CCOCC2)cc1
91 | 154 to 158 | Cc1ccc(CN(c2ccccc2CC(=O)O)c2c(Cl)cccc2Cl)cc1
92 | 31 to 33 | CCCC(CNc1nc(C)c(OC)c(C)n1)c1ccccc1 (stereo unspecified)
93 | 164 to 166 | O=C(NCc1ccccc1)c1cnccc1-c1ccccc1
94 | 82 | C=CC(CC(O)C(CC(C)C)NC(=O)C(Cc1c[nH]cn1)NC(=O)C(Cc1ccccc1)NC(=O)OC(C)(C)C)C(C)C (stereo unspecified)
95 | 59.1 | COC(=O)[C@@H](NC(=O)Oc1ccccc1)C(C)C
96 | 228 to 229 | CC(C)(C)C(NC(=O)c1cccc(F)c1)Nc1c(Nc2cccnc2Cl)c(=O)c1=O (stereo unspecified)
97 | 162 to 163 | Cn1ncc2c(c1=O)S(=O)CCNC2Cc1ccccc1 (stereo unspecified)
98 | 251 to 254 | CC(C)(C)c1cc(OCc2ccccc2C(=O)Nc2nnn[nH]2)cc(C(C)(C)C)c1
99 | 123 to 125 | O=C1Nc2cccnc2N(C(=O)N2CCCC(CCCN3CCCCC3)C2)c2ccccc21 (stereo unspecified)
100 | 146 to 148 | O=C(CCC(C(=O)O)N1C(=O)c2cccc(NCc3ccco3)c2C1=O)Nc1ccccc1 (stereo unspecified)
101 | 60 to 61 | CCCc1c(OCCCOc2cc(O)c(-c3cocn3)cc2CC)cccc1Oc1ccccc1C(=O)O

Reference: a melting point compilation (Tetko et al.; mined from patent text by program, amines drawn as free bases though some values may be those of a salt)
